Several values for one entry are separate records, joined by “and”; a condition that tells them apart may be missing. Equal values may be shown once. Read-outs that look alike come from different tables or passages of the source.

Test in all cases: Chou-Talalay combination assay, Cell Titer Glo
In assay [1] the test system is OE-33 esophageal carcinoma cells. It is filed as cell-based. As to conditions: combination with pyrvinium pamoate, 72 hour incubation.
Protocol: (§1) Following a 72 hour incubation, cell viability was determined using Cell Titer Glo.
Assay [2] relates to NCI-H295R adrenocortical carcinoma cells. It is filed as cell-based. As to conditions: combination with pyrvinium pamoate, 72 hour incubation.
Protocol: as §1
Assay [3] concerns SK-LMS-1 leiomyosarcoma cells. In kind it is cell-based. As to conditions: combination with pyrvinium pamoate, 72 hour incubation.
Protocol: as §1
Assay [4] deals with Hs766t pancreatic carcinoma cells. It is filed as cell-based. As to conditions: combination with pyrvinium pamoate, 72 hour incubation.
Protocol: as §1
Assay [5] relates to GIST-1 gastrointestinal stromal tumor cells. It is filed as cell-based. As to conditions: 72 hour incubation; for CI range: combination with pyrvinium pamoate.
Protocol: as §1
Assay [6] deals with CCC-5 cholangiocarcinoma cells. It is filed as cell-based. As to conditions: combination with pyrvinium pamoate, 72 hour incubation.
Protocol: as §1
Assay [7] deals with SNU-16 gastric carcinoma cells. It is filed as cell-based. As to conditions: 72 hour incubation; for CI range: combination with pyrvinium pamoate.
Protocol: as §1
In assay [8] the test system is Kato-III gastric carcinoma cells. It is filed as cell-based. As to conditions: Kato-III; combination with pyrvinium pamoate; 72 hour incubation.
Protocol: as §1
Assay [9] deals with carcinoid tumor cell line STC-1. In kind it is cell-based. As to conditions: combination with pyrvinium pamoate, 72 hour incubation.
Protocol: as §1
Assay [10] concerns Colo-205 colorectal carcinoma cells. In kind it is cell-based. As to conditions: combination with pyrvinium pamoate, 72 hour incubation.
Protocol: as §1
Assay [11] has as its system TOV-112D ovarian carcinoma cells. It is filed as cell-based. As to conditions: 72 hour incubation; for CI range: combination with pyrvinium pamoate.
Protocol: as §1
The test system of assay [12] is Rh41 rhabdomyosarcoma cells. In kind it is cell-based. As to conditions: combination with pyrvinium pamoate, 72 hour incubation.
Protocol: as §1
Assay [13] concerns SW13 adrenocortical carcinoma cells. It is filed as cell-based. As to conditions: combination with pyrvinium pamoate, 72 hour incubation.
Protocol: as §1
Assay [14] relates to TC-32 Ewing's sarcoma cells. In kind it is cell-based. As to conditions: combination with pyrvinium pamoate, 72 hour incubation.
Protocol: as §1
The test system of assay [15] is COV362 ovarian carcinoma cells. In kind it is cell-based. As to conditions: combination with pyrvinium pamoate, 72 hour incubation.
Protocol: as §1
In assay [16] the test system is HCT116 colorectal carcinoma cells. In kind it is cell-based. As to conditions: combination with pyrvinium pamoate, 72 hour incubation.
Protocol: as §1
In assay [17] the test system is UM-Chor1 chordoma cell line. In kind it is cell-based. As to conditions: combination with pyrvinium pamoate, 72 hour incubation.
Protocol: as §1
Assay [18] relates to Flo-1 esophageal carcinoma cells. In kind it is cell-based. As to conditions: 72 hour incubation; for CI range: combination with pyrvinium pamoate.
Protocol: as §1
The test system of assay [19] is BxPC-3 pancreatic carcinoma cells. As to conditions: 72 hour incubation; for CI range: combination with pyrvinium pamoate.
Protocol: as §1
Assay [20] relates to TFK-1 cholangiocarcinoma cells. It is filed as cell-based. As to conditions: combination with pyrvinium pamoate, 72 hour incubation.
Protocol: as §1
For assay [21], the system named is Rh30 rhabdomyosarcoma cells. It is filed as cell-based. As to conditions: combination with pyrvinium pamoate, 72 hour incubation.
Protocol: as §1
Assay [22] concerns TC-71 Ewing's sarcoma cells. It is filed as cell-based. As to conditions: combination with pyrvinium pamoate, 72 hour incubation.
Protocol: as §1
The test system of assay [23] is CHP-212 neuroblastoma cells. In kind it is cell-based. As to conditions: combination with pyrvinium pamoate, 72 hour incubation.
Protocol: as §1
In another assay the test system is LO-68 mesothelioma cells. It is filed as cell-based. As to conditions: combination with pyrvinium pamoate, 72 hour incubation.
Assay [24] concerns SK-N-AS neuroblastoma cells. It is filed as cell-based.
Protocol: as §1
For the next assay, the system named is JU-77 mesothelioma cells. In kind it is cell-based. As to conditions: combination with pyrvinium pamoate, 72 hour incubation.
For assay [25], the system named is SK-UT-1 leiomyosarcoma cells. It is filed as cell-based. As to conditions: 72 hour incubation.
Protocol: as §1
For assay [26], the system named is SW-1271 small cell lung carcinoma cells. It is filed as cell-based. As to conditions: 72 hour incubation.
Protocol: as §1
Assay [27] relates to DMS-114 small cell lung carcinoma cells. In kind it is cell-based. As to conditions: 72 hour incubation.
Protocol: as §1
Assay [28] concerns SK-UT-1B leiomyosarcoma cells. In kind it is cell-based. As to conditions: combination with pyrvinium pamoate, 72 hour incubation.
Protocol: as §1
Where [29] appears, read: SK-N-AS, combination with pyrvinium pamoate, 72 hour incubation.
[30] abbreviates: combination with pyrvinium pamoate.

Protocol for JU-77 mesothelioma cells: as §1
Protocol for LO-68 mesothelioma cells: as §1

In the case of `O=c1[nH]cc(F)c(=O)[nH]1` [5-FU, 5-Fluorouracil], the CI range in assay [1] was 0.481-0.715; in [2] it was 0.529-0.780; in [3] it was 0.421-0.814; in [4], 0.328-0.504 and 0.230-0.589; in assay [5], 0.168-0.798; in assay [6] it was 0.319-0.892. The CI range in [7] was 0.547-0.850; in assay [9] it was 0.596-0.841; in [10], 0.094-0.867; in assay [12], 0.642-0.831; in assay [13], 0.506-0.834; in assay [14], 0.337-0.843. Besides, the CI range in assay [15] is 0.472-0.723; in assay [16], 0.806-0.886; in assay [17] it was 0.489-0.886; in assay [18], 0.378-0.859; in assay [19], 0.539-0.785; in assay [20], 0.303-0.814. In addition, the CI range in assay [21] is recorded as 0.001-0.887; in [22] it was 0.409-0.821. Besides, the “Synergy with pyrvinium pamoate” value in [8] and in assay [11] was “No” throughout.
As to `N.N.O=C([O-])C1(C(=O)[O-])CCC1.[Pt+2]` [Carboplatin], the CI range was 0.647-0.863 in assay [1]; 0.190-0.896 in assay [2]; 0.519-0.846 in assay [23]; 0.366-0.812 in assay [3]; 0.267-0.860 and 0.261-0.842 in assay [7]; 0.221-0.887 in assay [8]. Further, the CI range in the assay on LO-68 mesothelioma cells is on record as 0.410-0.801; in assay [11] it was 0.506-0.845; in assay [12], 0.162-0.820; in [13] it was 0.408-0.891; in assay [14], 0.101-0.836; in assay [15], 0.447-0.837. For the same compound, the CI range in assay [18] was 0.253-0.892; in assay [24] (setting [29]), 0.107-0.843; in the assay on JU-77 mesothelioma cells, 0.385-0.853; in assay [21], 0.770-0.821; in assay [22], 0.597-0.878. Further, the “Synergy with pyrvinium pamoate” value in assay [5] is “No”.
`N.N.[Cl][Pt][Cl]` [Cisplatin]: the CI range in [2] is recorded as 0.314-0.798; in assay [23], 0.694-0.756; in assay [3], 0.014-0.783; in assay [4], 0.458-0.875; in assay [5], 0.177-0.732; in assay [6], 0.326-0.892. Also, the CI range is reported as 0.386-0.842 in assay [8]; 0.506-0.861 in assay [9]; 0.439-0.845 in [11]; 0.130-0.874 in [12]; 0.309-0.886 in assay [13]; 0.588-0.878 in assay [14]. In addition, the CI range in assay [26] (setting [30]) was 0.568-0.895; in assay [27] (setting [30]), 0.572-0.883; in [15], 0.443-0.859; in assay [17], 0.468-0.887; in assay [19] it was 0.459-0.775 and 0.472-0.882; in [28], 0.407-0.742 and 0.337-0.809. Moreover, the CI range in assay [20] is on record as 0.058-0.361; in assay [24] (setting [29]), 0.130-0.882; in [21], 0.693-0.877; in assay [22] it was 0.329-0.832. Also, the “Synergy with pyrvinium pamoate” value in assay [25] is listed as “No”.
As for `O=P1(N(CCCl)CCCl)NCCCO1` (centres unmarked) [Cyclophosphamide], the CI range was 0.256-0.876 in assay [23]; 0.167-0.751 in assay [9]; 0.274-0.867 in assay [12]; “Yes- (0.098-0.858)” in assay [24]; 0.083-0.786 in assay [21]; 0.718-0.722 in assay [22].
On to `CC(=O)O[C@@]12CO[C@@H]1C[C@H](O)[C@@]1(C)C(=O)[C@H](O)C3=C(C)[C@@H](OC(=O)[C@H](O)[C@@H](NC(=O)OC(C)(C)C)c4ccccc4)C[C@@](O)([C@@H](OC(=O)c4ccccc4)[C@H]21)C3(C)C` [Docetaxel], for which, in [11], the “Synergy with pyrvinium pamoate” value is reported as “No”.
For `C#Cc1cccc(Nc2ncnc3cc(OCCOC)c(OCCOC)cc23)c1` [Erlotinib], in [17], the CI range was 0.308-0.883.
For the compound `COc1cc([C@@H]2c3cc4c(cc3[C@@H](O[C@@H]3O[C@@H]5CO[C@@H](C)O[C@H]5[C@H](O)[C@H]3O)[C@H]3COC(=O)[C@H]23)OCO4)cc(OC)c1O` [Etoposide], the CI range in assay [2] was 0.717-0.864; in assay [23], 0.763-0.891; in assay [9] it was 0.281-0.794; in [10], 0.107-0.751; in assay [13], 0.487-0.623; in [14], 0.593-0.875. Also, the CI range in [16] was 0.716-0.836; in assay [24] (setting [29]), 0.638-0.834; in assay [22], 0.677-0.883. Also, the “Synergy with pyrvinium pamoate” value in assay [26] and in assay [27] was “No” each time.
For `O=P1(NCCCl)OCCCN1CCCl` (centres unmarked) [Ifosfamide], the CI range in assay [28] is recorded as 0.285-0.315.
Consider `Cc1ccc(NC(=O)c2ccc(CN3CCN(C)CC3)cc2)cc1Nc1nccc(-c2cccnc2)n1` [Imatinib], for which the CI range in assay [5] is recorded as 0.203-0.726.
Take `CCc1c2c(nc3ccc(OC(=O)N4CCC(N5CCCCC5)CC4)cc13)-c1cc3c(c(=O)n1C2)COC(=O)[C@]3(O)CC` [Irinotecan]: the CI range in [1] is listed as 0.438-0.783; in assay [2], 0.285-0.855; in assay [23], 0.719-0.891; in assay [3], 0.362-0.885; in assay [5] it was 0.039-0.837; in [8], 0.258-0.892. Besides, the CI range in assay [10] is on record as 0.158-0.866; in assay [11], 0.414-0.760; in [12], 0.068-0.711; in assay [13] it was 0.652-0.827; in [14], 0.612-0.764; in assay [15] it was 0.445-0.697. In addition, the CI range in [16] is recorded as 0.582-0.878; in assay [17], 0.580-0.772; in [28], 0.235-0.705; in assay [21], 0.324-0.872; in [22], 0.466-0.803. Further, the “Synergy with pyrvinium pamoate” value in assay [7], in assay [25], in assay [18] and in assay [19] was “No” each time.
For the compound `CC(=O)O[C@H]1C(=O)[C@@]2(C)[C@H]([C@H](OC(=O)c3ccccc3)[C@]3(O)C[C@H](OC(=O)[C@H](O)[C@@H](NC(=O)c4ccccc4)c4ccccc4)C(C)=C1C3(C)C)[C@]1(OC(C)=O)CO[C@@H]1C[C@@H]2O` [Paclitaxel], the CI range is recorded as 0.527-0.896 in assay [1]; 0.571-0.887 in assay [2]; 0.545-0.868 in [23]; 0.078-0.847 in assay [3]; 0.232-0.830 in [4]; 0.399-0.808 in assay [5]. The CI range in assay [6] was 0.255-0.847 and 0.296-0.785; in [7] it was 0.178-0.820; in assay [8], 0.076-0.898; in assay [9] it was 0.479-0.873; in [25] (setting [30]) it was “(0.089-0.330)”; in assay [11] it was 0.104-0.877. The CI range in [12] is given as 0.073-0.876; in assay [13], 0.552-0.870; in assay [14], 0.586-0.884; in assay [15] it was 0.451-0.761; in assay [17], 0.573-0.862; in [18], 0.640-0.888. Also, the CI range in assay [19] is given as 0.613-0.899; in assay [28], 0.262-0.773; in assay [20] it was 0.277-0.894; in assay [24] (setting [29]), 0.367-0.857; in assay [21], 0.362-0.829; in assay [22], 0.254-0.721.
Take `CCC1=C[C@@H]2CN(C1)Cc1c([nH]c3ccccc13)[C@@](C(=O)OC)(c1cc3c(cc1OC)N(C)[C@H]1[C@@](O)(C(=O)OC)[C@H](OC(C)=O)[C@]4(CC)C=CCN5CC[C@]31[C@@H]54)C2` [Vinorelbine]: the CI range with LO-68 mesothelioma cells was 0.163-0.845; in the assay with JU-77 mesothelioma cells, 0.454-0.717.

(Values after patent publication US10933061B2 (Shepherd Therapeutics, Inc., priority 2017, dated 2021).)
